Assay type in all cases: cell-based
One assay relates to Rhizoctonia solani. Description: Rhizoctonia solani (rice sheath blight/potato black scurf) in vitro test, radial growth on potato dextrose agar. Particulars: 168 h, 300 ppm in potato dextrose agar, 25° C., 60% relative humidity, seven days, read-out: control compared to the untreated check (radial growth).
A further assay has as its system Pyricularia oryzae. As to the kind of experiment: microbe, parasite or virus in culture. The settings on record: 168 h, read-out: control compared to the untreated check (radial growth).
The test system of the next assay is Alternaria solani. As to the kind of experiment: Alternaria solani (early blight of tomato/potato) in vitro test, radial growth on potato dextrose agar. The settings on record: 168 h, 300 ppm in potato dextrose agar, 25° C., 60% relative humidity, seven days, read-out: control compared to the untreated check (radial growth).

This is an account of results in patent US12545639B2, “3-substituted phenylamidine compounds, preparation and use thereof” (PI INDUSTRIES LTD., priority 2019, dated 2026).

Regarding `CCN(C)C=Nc1cc(C)cc(Nc2ccc3c(c2)OCCO3)c1Cl` [Compound 169, N′-(2-chloro-3-((2,3-dihydrobenzo[b][1,4]dioxin-6-yl)amino)-5-methylphenyl)-N-ethyl-N-methylformimidamide], the inhibition of growth at 300 ppm with Rhizoctonia solani, in the assay on Pyricularia oryzae and in the assay on Alternaria solani was not below 70% in each case.
Take `CCN(C)C=Nc1cc(Cl)cc(Cc2ccc(C(F)(F)F)cc2)c1C` [Compound 249, N′-(5-chloro-2-methyl-3-(4-(trifluoromethyl)benzyl)phenyl)-N-ethyl-N-methylformimidamide]: the inhibition of growth at 300 ppm in the assay with Pyricularia oryzae is not below 70%.
With `CCN(C)C=Nc1cc(C)cc(Cc2ccccc2C#N)c1Cl` [Compound 47, N′-(2-chloro-3-(2-cyanobenzyl)-5-methylphenyl)-N-ethyl-N-methylformimidamide], the inhibition of growth at 300 ppm in the assay with Pyricularia oryzae and in the assay with Alternaria solani was not below 70% in each case.
`CCc1cccc(Nc2cc(F)cc(N=CN(C)CC)c2C)n1` [Compound 227, N-ethyl-N′-(3-((6-ethylpyridin-2-yl)amino)-5-fluoro-2-methylphenyl)-N-methylformimidamide]: the inhibition of growth at 300 ppm in the assay on Alternaria solani is not below 70%.
Consider `CCN(C)C=Nc1cc(Cl)cc(N(C)c2ccc(OC)cc2)c1C` [Compound 167, N′-(5-chloro-3-((4-methoxyphenyl)(methyl)amino)-2-methylphenyl)-N-ethyl-N-methylformimidamide], for which the inhibition of growth at 300 ppm in the assay with Rhizoctonia solani, with Pyricularia oryzae and in the assay on Alternaria solani was not below 70% throughout.
Regarding `CCN(C)C=Nc1cc(OC)cc(Cc2cccc(C#N)c2)c1C` [Compound 306, N′-(3-(3-cyanobenzyl)-5-methoxy-2-methylphenyl)-N-ethyl-N-methylformimidamide], the inhibition of growth at 300 ppm with Rhizoctonia solani, in the assay with Pyricularia oryzae and in the assay on Alternaria solani was not below 70% each time.
Take `CCN(C)C=Nc1cc(C)cc(N(C)c2cc(F)cc(F)c2)c1Cl` [Compound 74, N′-(2-chloro-3-((3,5-difluorophenyl)(methyl)amino)-5-methylphenyl)-N-ethyl-N-methylformimidamide]: the inhibition of growth at 300 ppm with Alternaria solani was not below 70%.
`CCN(C)C=Nc1cc(F)cc(C(=O)COc2ccc(OC)cc2Cl)c1C` [Compound 304, N′-(3-(2-(2-chloro-4-methoxyphenoxy)acetyl)-5-fluoro-2-methylphenyl)-N-ethyl-N-methylformimidamide]: the inhibition of growth at 300 ppm in the assay with Pyricularia oryzae and in the assay on Alternaria solani was not below 70% in each case.
Regarding `CCN(C)C=Nc1cc(C)cc(Nc2cc(F)cc(F)c2)c1Cl` [Compound 78, N′-(2-chloro-3-((3,5-difluorophenyl)amino)-5-methylphenyl)-N-ethyl-N-methylformimidamide], the inhibition of growth at 300 ppm with Pyricularia oryzae and with Alternaria solani was not below 70% in each case.
With `CCN(C)C=Nc1cc(Cl)cc(Nc2cccc(C)c2)c1C` [Compound 154, N′-(5-chloro-2-methyl-3-(m-tolylamino)phenyl)-N-ethyl-N-methylformimidamide], the inhibition of growth at 300 ppm in the assay on Rhizoctonia solani, in the assay on Pyricularia oryzae and in the assay with Alternaria solani was not below 70% in each case.
As to `CCN(C)C=Nc1cc(C)cc(N(C)c2cccc(OC)c2)c1Cl` [Compound 49, N′-(2-chloro-3-((3-methoxyphenyl)(methyl)amino)-5-methylphenyl)-N-ethyl-N-methylformimidamide], the inhibition of growth at 300 ppm with Pyricularia oryzae and in the assay with Alternaria solani was not below 70% in each case.
Take `CCN(C)C=Nc1cc(C)cc(Nc2ccc3ncsc3c2)c1Cl` [Compound 228, N′-(3-(benzo[d]thiazol-6-ylamino)-2-chloro-5-methylphenyl)-N-ethyl-N-methylformimidamide]: the inhibition of growth at 300 ppm in the assay with Pyricularia oryzae and in the assay with Alternaria solani was not below 70% throughout.
In the case of `CCN(C)C=Nc1cc(C)cc(N(C)c2ccc3ncsc3c2)c1Cl` [Compound 240, N′-(3-(benzo[d]thiazol-6-yl(methyl)amino)-2-chloro-5-methylphenyl)-N-ethyl-N-methylformimidamide], the inhibition of growth at 300 ppm in the assay on Pyricularia oryzae and with Alternaria solani was not below 70% in each case.
Consider `CCN(C)C=Nc1cc(F)cc(Cc2ccccc2C#N)c1C` [Compound 168, N′-(3-(2-cyanobenzyl)-5-fluoro-2-methylphenyl)-N-ethyl-N-methylformimidamide], for which the inhibition of growth at 300 ppm in the assay with Rhizoctonia solani, in the assay with Pyricularia oryzae and in the assay with Alternaria solani was not below 70% in each case.
Take `CCN(C)C=Nc1cc(Cl)cc(Cc2ccc(SC)cc2)c1C` [Compound 252, N′-(5-chloro-2-methyl-3-(4-(methylthio)benzyl)phenyl)-N-ethyl-N-methylformimidamide]: the inhibition of growth at 300 ppm with Pyricularia oryzae is not below 70%.
On the same count and under the same terms, in the case of `CCN(C)C=Nc1cc(C)cc(Nc2cc(F)cc(Cl)c2)c1Cl` [Compound 97, N′-(2-chloro-3-((3-chloro-5-fluorophenyl)amino)-5-methylphenyl)-N-ethyl-N-methylformimidamide] it was not below 70%.
For `CCN(C)C=Nc1cc(C)cc(N(C)c2ncccc2C)c1Cl` [Compound 108, N′-(2-chloro-5-methyl-3-(methyl(3-methylpyridin-2-yl)amino)phenyl)-N-ethyl-N-methylformimidamide], the inhibition of growth at 300 ppm in the assay on Pyricularia oryzae and in the assay with Alternaria solani was not below 70% each time.
On to `CCN(C)C=Nc1cc(C)cc(Nc2ncccc2C(F)(F)F)c1Cl` [Compound 135, N′-(2-chloro-5-methyl-3-((3-(trifluoromethyl)pyridin-2-yl)amino)phenyl)-N-ethyl-N-methylformimidamide], for which the inhibition of growth at 300 ppm with Rhizoctonia solani and in the assay with Pyricularia oryzae was not below 70% each time.
For `CCN(C)C=Nc1cc(OC)cc(Nc2ccc(OC)c(F)c2)c1C` [Compound 269, N-ethyl-N′-(3-((3-fluoro-4-methoxyphenyl)amino)-5-methoxy-2-methylphenyl)-N-methylformimidamide], the inhibition of growth at 300 ppm in the assay with Alternaria solani was not below 70%.
On to `CCN(C)C=Nc1cc(Cl)cc(N(C)c2cccc(C(F)(F)F)n2)c1C` [Compound 289, N′-(5-chloro-2-methyl-3-(methyl(6-(trifluoromethyl)pyridin-2-yl)amino)phenyl)-N-ethyl-N-methylformimidamide], for which the inhibition of growth at 300 ppm with Pyricularia oryzae and with Alternaria solani was not below 70% in each case.
With `CCN(C)C=Nc1cc(Cl)cc(N(C)c2ccc(OC)c(F)c2)c1C` [Compound 267, N′-(5-chloro-3-((3-fluoro-4-methoxyphenyl)(methyl)amino)-2-methylphenyl)-N-ethyl-N-methylformimidamide], the inhibition of growth at 300 ppm with Pyricularia oryzae is not below 70%.
For the compound `CCN(C)C=Nc1cc(F)cc(Cc2cccnc2)c1C` [Compound 260, N-ethyl-N′-(5-fluoro-2-methyl-3-(pyridin-3-ylmethyl)phenyl)-N-methylformimidamide], the inhibition of growth at 300 ppm in the assay on Rhizoctonia solani and in the assay with Alternaria solani was not below 70% throughout.
Regarding `CCN(C)C=Nc1cc(F)cc(N(C)c2ccc3ncsc3c2)c1C` [Compound 238, N′-(3-(benzo[d]thiazol-6-yl(methyl)amino)-5-fluoro-2-methylphenyl)-N-ethyl-N-methylformimidamide], the inhibition of growth at 300 ppm in the assay with Pyricularia oryzae and in the assay on Alternaria solani was not below 70% each time.
`CCN(C)C=Nc1cc(Cl)cc(Cc2cccnc2)c1C` [Compound 248, N′-(5-chloro-2-methyl-3-(pyridin-3-ylmethyl)phenyl)-N-ethyl-N-methylformimidamide]: in the assay with Pyricularia oryzae, the inhibition of growth at 300 ppm is not below 70%.
As to `CCN(C)C=Nc1cc(C)cc(N(C)c2cccc(C(F)(F)F)n2)c1Cl` [Compound 290, N′-(2-chloro-5-methyl-3-(methyl(6-(trifluoromethyl)pyridin-2-yl)amino)phenyl)-N-ethyl-N-methylformimidamide], the inhibition of growth at 300 ppm in the assay with Pyricularia oryzae and in the assay with Alternaria solani was not below 70% each time.
As for `CCN(C)C=Nc1cc(C#N)cc(Cc2cccc(Br)c2)c1C` [Compound 313, N′-(3-(3-bromobenzyl)-5-cyano-2-methylphenyl)-N-ethyl-N-methylformimidamide], the inhibition of growth at 300 ppm with Pyricularia oryzae is not below 70%.
Same read-out and setting: then `CCN(C)C=Nc1cc(Cl)cc(Cc2cccc(OC(F)(F)F)c2)c1C` [Compound 251, N′-(5-chloro-2-methyl-3-(3-(trifluoromethoxy)benzyl)phenyl)-N-ethyl-N-methylformimidamide], with not below 70%; and `CCN(C)C=Nc1cc(C)cc(N(C)c2ccccn2)c1Cl` [Compound 107, N′-(2-chloro-5-methyl-3-(methyl(pyridin-2-yl)amino)phenyl)-N-ethyl-N-methylformimidamide], with not below 70%.
Take `CCN(C)C=Nc1cc(C)cc(Nc2cc(Cl)cc(C(F)(F)F)c2)c1Cl` [Compound 137, N′-(2-chloro-3-((3-chloro-5-(trifluoromethyl)phenyl)amino)-5-methylphenyl)-N-ethyl-N-methylformimidamide]: the inhibition of growth at 300 ppm in the assay with Pyricularia oryzae and in the assay with Alternaria solani was not below 70% in each case.
On to `CCN(C)C=Nc1cc(Cl)cc(Cc2cccc(C#N)c2)c1C` [Compound 250, N′-(5-chloro-3-(3-cyanobenzyl)-2-methylphenyl)-N-ethyl-N-methylformimidamide], for which, in the assay on Pyricularia oryzae, the inhibition of growth at 300 ppm was not below 70%.
Turning to `CCN(C)C=Nc1cc(C#N)cc(Cc2cccc(C#N)c2)c1C` [Compound 309, N′-(5-cyano-3-(3-cyanobenzyl)-2-methylphenyl)-N-ethyl-N-methylformimidamide], in the assay on Pyricularia oryzae, the inhibition of growth at 300 ppm was not below 70%.
In the case of `CCN(C)C=Nc1cc(OC)cc(Nc2ccccc2OC)c1C` [Compound 268, N-ethyl-N′-(5-methoxy-3-((2-methoxyphenyl)amino)-2-methylphenyl)-N-methylformimidamide], in the assay with Alternaria solani, the inhibition of growth at 300 ppm is not below 70%.
